Assay results from PMC9578396, “Intrinsic Antibacterial Activity of Xeruborbactam In Vitro: Assessing Spectrum and Mode of Action” (Antimicrobial Agents and Chemotherapy, 2022).
Like-named read-outs stand apart in the source and are kept apart here.

Experiments:
Format in all cases: cell-based
[1] = tested on: Staphylococcus aureus; assay: MIC, Staphylococcus aureus (MSSA, MRSA)
Source text: (§1) Bacterial isolates were subjected to broth microdilution susceptibility testing, performed according to Clinical and Laboratory Standards Institute (CLSI) methods ([46]), using panels prepared in-house. Meropenem was purchased from Sandoz, and all other antibiotics were from Sigma-Aldrich. Xeruborbactam was synthesized at Qpex Biopharma, San Diego, CA. Avibactam was purchased from eNovation Chemicals LLC, Bridgewater, NJ, USA; zidebactam was from MedKoo Biosciences, Inc., Morrisville, NC, and nacubactam was from Advanced ChemBlocks, Hayward, CA. Durlobactam was synthesized at Acme Bioscience, Palo Alto, CA, USA.

[2] = tested on: Klebsiella pneumoniae; assay: microbe, parasite or virus in culture; conditions: Klebsiella pneumoniae
Source text: (§2) (i) Panels of engineered bacterial strains containing various combinations of porin and efflux mutations were used. The construction of all the strains used in the study is described in detail in references, [44], and [45]. (ii) KPC-producing clinical isolates and their derivatives that lost KPC plasmids were used also. These strains and their origins are described in the Table S2. (iii) Finally, KPC-producing clinical isolates enriched in strains with porin mutations were used. The mutations identified include various deletions, insertions, nonsense mutations, and decreased expression. Most of the isolates were obtained from JMI Laboratories or International Health Management Associates (IHMA); they were collected in the course of global surveillance studies.
as §1, with “Meropenem was purchased from Sandoz, and all other antibiotics were from Sigma-Aldrich.” left out

[3] = tested on: Enterococcus faecalis; assay: MIC, Enterococcus faecalis
Source text: as §1

[4] = tested on: Streptococcus pneumoniae; assay: MIC, Streptococcus pneumoniae; conditions: Streptococcus pneumoniae, read-out: MIC
Source text: as §1

[5] = tested on: Acinetobacter baumannii; assay: Broth microdilution MIC (CLSI), Acinetobacter baumannii; conditions: Acinetobacter baumannii
Source text: as §2
as §1, with “Meropenem was purchased from Sandoz, and all other antibiotics were from Sigma-Aldrich.” left out

[6] = tested on: Pseudomonas aeruginosa; assay: Broth microdilution MIC (CLSI), Pseudomonas aeruginosa; conditions: Pseudomonas aeruginosa
Source text: as §2
as §1, with “Meropenem was purchased from Sandoz, and all other antibiotics were from Sigma-Aldrich.” left out

[7] = tested on: Escherichia coli; assay: Broth microdilution MIC (CLSI), Escherichia coli; conditions: Escherichia coli
Source text: as §2
as §1, with “Meropenem was purchased from Sandoz, and all other antibiotics were from Sigma-Aldrich.” left out

[8] = tested on: Enterobacter cloacae species complex; assay: Broth microdilution MIC (CLSI), Enterobacter cloacae; conditions: Enterobacter cloacae, read-out: MIC
Source text: as §1

Measured: MIC

C[C@H]1COc2c(N3CCN(C)CC3)c(F)cc3c(=O)c(C(=O)O)cn1c23 [Levofloxacin]
8 µg/mL: [1]; Staphylococcus aureus, MRSA, sa001, MRSA, read-out: MIC | [1]; Staphylococcus aureus, MRSA, sa010, MRSA, read-out: MIC | [1]; Staphylococcus aureus, MRSA, sa150, MRSA, read-out: MIC
1 µg/mL: [3]; efs004 | [3]; efs005 | [3]; efs006 | [3]; efs007 | [3]; efs073 | [4]; sp003 | [4]; sp004 | [4]; sp007 | [4]; sp009 | [4]; sp118 | [4]; sp119 | [4]; sp120 | [4]; sp121 | [4]; sp125 | [4]; sp126
0.125 µg/mL: [1]; Staphylococcus aureus, ATCC 29213 / MSSA | [1]; Staphylococcus aureus, MRSA | [1]; Staphylococcus aureus, MSSA | [1]; sa002, MSSA | [1]; sa003, MSSA | [1]; sa004, MSSA | [1]; sa005, MSSA | [1]; sa007, MSSA | [1]; sa009, MSSA | [1]; sa152, MRSA
0.5 µg/mL: [3]; efs003 | [3]; efs026 | [4]; sp001 | [4]; sp002 | [4]; sp005 | [4]; sp006 | [4]; sp008 | [4]; sp123
32 µg/mL: [1]; Staphylococcus aureus, MRSA, sa278, MRSA, read-out: MIC | [1]; Staphylococcus aureus, MRSA, sa281, MRSA, read-out: MIC | [3]; efs071 | [3]; efs090 | [3]; efs091 | [3]; efs092 | [3]; efs094 | [3]; efs096 | [4]; sp122
0.25 µg/mL: [1]; Staphylococcus aureus, MRSA, sa013, MRSA, read-out: MIC | [1]; Staphylococcus aureus, MSSA, sa008, MSSA, read-out: MIC | [1]; Staphylococcus aureus, MSSA, sa011, MSSA, read-out: MIC | [1]; Staphylococcus aureus, MSSA, sa012, MSSA, read-out: MIC
2 µg/mL: [1]; Staphylococcus aureus, MRSA, sa279, MRSA, read-out: MIC | [1]; Staphylococcus aureus, MRSA, sa280, MRSA, read-out: MIC | [3]; efs095 | [4]; sp117
16 µg/mL: [1]; Staphylococcus aureus, MRSA, sa148, MRSA, read-out: MIC | [1]; Staphylococcus aureus, MRSA, sa151, MRSA, read-out: MIC | [1]; Staphylococcus aureus, MRSA, sa153, MRSA, read-out: MIC | [3]; efs072 | [3]; efs093
0.06 µg/mL: [1]; Staphylococcus aureus, MSSA, sa006, MSSA, read-out: MIC | [2]; strain KPM1026a, read-out: MIC

NCCONC(=O)[C@@H]1CC[C@@H]2CN1C(=O)N2OS(=O)(=O)O [Nacubactam]
128 µg/mL: [6]; strain PAM1020, wild type, read-out: MIC | [6]; strain PAM1032, nalB (MexAB-OprM overexpression) | [6]; strain PAM1034, nfxC (MexEF-OprN overexpression) | [6]; strain PAM1106, mexA::Tet | [6]; strain PAM1154, oprM::Hg
4 µg/mL: [2]; strain KPM1027, ramR, read-out: MIC | [7]; strain ECM5497, wild type, read-out: MIC | [7]; strain ECM6001, ΔacrB
32 µg/mL: [6]; strain PAM1033, nfxB (MexCD-OprJ overexpression)
> 64 µg/mL: [2]; strain KPM1171, ramR ompK36_1171, read-out: MIC | [2]; strain KPM2040, ompK36_2040, read-out: MIC | [2]; strain KPM2613, ΔompK35 ompK36_2040
8 µg/mL: [2]; strain KPM1026a, wild type, read-out: MIC | [2]; strain KPM2600, ΔompK35
> 256 µg/mL: [5]; strain AB1007, wild type, read-out: MIC | [5]; strain ACM1013, ΔadeIJK | [5]; strain ACM1014, ΔadeABC | [5]; strain ACM1015, ΔadeIJK ΔadeABC | [5]; strain ACM1027, adeN (AdeIJK overexpression) | [5]; strain ACM1030, adeS (AdeABC overexpression)
2 µg/mL: [2]; strain KPM2696, ΔacrB | [7]; strain ECM6502, marR (AcrAB overexpression)

CN(C)c1cc(NC(=O)CNC(C)(C)C)c(O)c2c1C[C@H]1C[C@H]3[C@H](N(C)C)C(O)=C(C(N)=O)C(=O)[C@@]3(O)C(O)=C1C2=O [Tigecycline]
2 µg/mL: [8]; clinical isolate ECL1126, OmpK35 FN, OmpK36 FN | [8]; clinical isolate ECL1131, OmpK35 NF, OmpK36 FN
1 µg/mL: [2]; clinical isolate KP1004, OmpK35 NF, OmpK36 FN, read-out: MIC | [2]; clinical isolate KP1070, OmpK35 NF, OmpK36 FN, read-out: MIC | [2]; clinical isolate KP1093, OmpK35 NF, OmpK36 PFN (GD), read-out: MIC | [2]; clinical isolate KP1251, OmpK35 NF, OmpK36 FN, read-out: MIC | [2]; clinical isolate KP1274, OmpK35 FN, OmpK36 FN, read-out: MIC | [2]; clinical isolate KP1463, OmpK35 NF, OmpK36 NF, read-out: MIC | [7]; clinical isolate EC1097, OmpK35 FN, OmpK36 FN, read-out: MIC | [7]; clinical isolate EC1098, OmpK35 NF, OmpK36 FN, read-out: MIC
0.25 µg/mL: [7]; clinical isolate EC1085, OmpK35 FN, OmpK36 FN, read-out: MIC | [7]; clinical isolate EC1121, OmpK35 NF, OmpK36 FN, read-out: MIC
0.125 µg/mL: [7]; clinical isolate EC1088, OmpK35 FN, OmpK36 FN, read-out: MIC
0.5 µg/mL: [2]; clinical isolate KP1074, OmpK35 NF, OmpK36 PFN (GD), read-out: MIC | [7]; clinical isolate EC1078, OmpK35 NF, OmpK36 NF, read-out: MIC | [7]; clinical isolate EC1081, OmpK35 FN, OmpK36 FN, read-out: MIC
4 µg/mL: [8]; clinical isolate ECL1079, OmpK35 NF, OmpK36 NF | [2]; clinical isolate KP1469, OmpK35 NF, OmpK36 NF, read-out: MIC | [2]; clinical isolate KP1598, OmpK35 NF, OmpK36 PFN (GD), read-out: MIC | [7]; clinical isolate EC1119, OmpK35 NF, OmpK36 NF, read-out: MIC
8 µg/mL: [8]; clinical isolate ECL1057, OmpK35 FN, OmpK36 NF
